The source of these data is patent US8686024B2, “Indoline derivatives” (priority 2009, dated 2014).

In experiment [1] the target is T1, butyrylcholine esterase (BuChE) (Mus musculus, UniProt Q03311).
T1 construct: brain homogenate and serum of mouse were used as choline esterase enzyme sources; from tissue; host or cells: mouse serum
Briefly: In vitro assay for choline esterase inhibition (Ellman method), butyrylthiocholine substrate, mouse serum. The format is biochemical. The settings on record: for Ratio AChE/BuChE: selectivity for BuChE inhibition: IC50 (AchE)/IC50 (BuChE). How it is done:
(§1) For measurement of esterase activity, brain homogenate and serum of mouse were used as choline esterase enzyme sources, and the method of Ellman et. al (Biochemical pharmacology 7: 88-95 1961) were referred. Compound of each example were diluted in dimethylsulfoxide.
(§2) In detail, acetylthiocholine or butyrylthiocholine as substrates, test compounds, and DNTB [[…]] were added to the mouse brain homogenate or serum, respectively.
(§3) After incubation, thiocholine was produced by enzyme reaction in the mixture, and then, the yellow product was formed by the reaction of thiocholine and DTNB. The activity of acetylcholine esterase (AChE) or butyrylcholine esterase (BuChE) was evaluated by determination of absorbance at 415 nm. […] And the selectivity for BuChE inhibition of each compound was calculated by the ratio: IC50 (AchE)/IC50 (BuChE).
In general terms: Ellman's reagent forms a yellow product with free thiols.

The target in experiment [2] is T2, acetylcholine esterase (AChE) (Mus musculus, UniProt P21836).
T2 construct: brain homogenate and serum of mouse were used as choline esterase enzyme sources; from tissue; host or cells: mouse brain homogenate
T2 sequence (P21836 32-614): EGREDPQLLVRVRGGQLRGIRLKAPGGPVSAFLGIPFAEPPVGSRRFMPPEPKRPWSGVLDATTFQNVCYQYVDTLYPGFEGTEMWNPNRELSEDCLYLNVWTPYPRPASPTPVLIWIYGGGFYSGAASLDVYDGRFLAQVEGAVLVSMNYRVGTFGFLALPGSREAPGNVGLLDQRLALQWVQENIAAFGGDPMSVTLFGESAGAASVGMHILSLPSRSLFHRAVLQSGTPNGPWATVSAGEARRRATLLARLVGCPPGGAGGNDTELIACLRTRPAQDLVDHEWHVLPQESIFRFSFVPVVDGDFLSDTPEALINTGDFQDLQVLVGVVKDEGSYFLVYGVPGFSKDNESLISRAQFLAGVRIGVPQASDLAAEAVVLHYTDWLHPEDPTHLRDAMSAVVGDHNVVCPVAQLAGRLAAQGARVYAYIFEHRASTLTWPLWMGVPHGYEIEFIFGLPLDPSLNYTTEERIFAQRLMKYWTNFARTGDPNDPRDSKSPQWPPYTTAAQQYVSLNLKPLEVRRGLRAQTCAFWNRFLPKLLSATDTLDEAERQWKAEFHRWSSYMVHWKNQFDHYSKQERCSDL
The experiment can be described thus: In vitro assay for choline esterase inhibition (Ellman method), acetylthiocholine substrate, mouse brain homogenate. The format is biochemical. The protocol: as §1, §2, §3

Where [3] appears, read: mouse serum, butyrylthiocholine, absorbance at 415 nm, read-out: BuChE inhibitory activity IC50.
Where [4] appears, read: mouse brain homogenate, acetylthiocholine, absorbance at 415 nm, read-out: AChE inhibitory activity IC50.

The structures appear in SMILES notation. Entries after “also recorded” stand apart in the source; their conditions may differ. Like-named read-outs stand apart in the source and are kept apart here.

T1 sequence (Q03311 30-603): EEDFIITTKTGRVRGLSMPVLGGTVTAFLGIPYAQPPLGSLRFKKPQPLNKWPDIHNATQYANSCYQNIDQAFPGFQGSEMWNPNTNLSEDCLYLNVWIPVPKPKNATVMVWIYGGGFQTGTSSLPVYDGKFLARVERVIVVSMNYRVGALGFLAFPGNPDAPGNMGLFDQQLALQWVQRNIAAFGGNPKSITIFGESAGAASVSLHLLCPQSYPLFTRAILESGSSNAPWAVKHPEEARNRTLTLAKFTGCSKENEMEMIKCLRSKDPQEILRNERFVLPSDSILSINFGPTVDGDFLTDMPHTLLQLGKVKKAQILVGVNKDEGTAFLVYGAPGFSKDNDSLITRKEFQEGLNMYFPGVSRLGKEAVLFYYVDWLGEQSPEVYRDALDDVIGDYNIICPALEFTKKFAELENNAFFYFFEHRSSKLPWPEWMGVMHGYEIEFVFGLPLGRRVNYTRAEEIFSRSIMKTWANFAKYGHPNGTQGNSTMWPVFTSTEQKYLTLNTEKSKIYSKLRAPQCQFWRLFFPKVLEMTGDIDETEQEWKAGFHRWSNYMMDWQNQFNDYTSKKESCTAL

In the case of `O=C(NCCc1ccc(Cl)cc1Cl)Oc1ccc2c(c1)CCN2Cc1ccccc1` [Example 118, 1-benzylindolin-5-yl 2,4-dichlorophenethylcarbamate], in experiment [1], the IC50 – broadly, the point on the concentration scale where inhibition reaches its midpoint – came out at 10 nM and the “Ratio AChE/BuChE” value is given as >10000. Besides, the “selectivity to butyrylcholinesterase (BuChE versus AChE inhibitory activity), in words” value in experiment [1] (summary of Tables 1-3) is given as “much higher”. Moreover, the IC50 in experiment [2] was > 100 µM.
Consider `Cc1ccc(CNC(=O)Oc2ccc3c(c2)CCN3Cc2ccccc2)cc1` [Example 99, 1-benzylindolin-5-yl-4-methylbenzylcarbamate], for which the IC50 worked out at 21 nM in experiment [1] (setting [3]) and 14 µM in experiment [2] (setting [4]). In addition, the “Ratio AChE/BuChE” value in experiment [1] came to 670. Moreover, the “selectivity to butyrylcholinesterase (BuChE versus AChE inhibitory activity), in words” value in experiment [1] (summary of Tables 1-3) is recorded as “much higher”.
Take `CN(C)c1ccc(NC(=O)Oc2ccc3c(c2)CCN3Cc2ccccn2)cc1` [Example 152, 1-(2-pyridylmethyl)indolin-5-yl 4-dimethylaminophenylcarbamate]: the IC50 in experiment [1] (setting [3]) came to 57 nM; in experiment [2] (setting [4]), 1.1 µM. Also, in experiment [1], the “Ratio AChE/BuChE” value came to 19.
As to `O=C(NCCc1ccccc1)Oc1ccc2c(c1)CCN2Cc1ccccc1` [Example 16, 1-benzylindolin-5-yl phenethylcarbamate], the concentration for half-maximal inhibition (IC50) in experiment [1] (setting [3]) turned out to be 42 nM; in experiment [2] (setting [4]) it was 9.8 µM. Moreover, the “Ratio AChE/BuChE” value in experiment [1] turned out to be 230. Moreover, in experiment [1] (summary of Tables 1-3), the “selectivity to butyrylcholinesterase (BuChE versus AChE inhibitory activity), in words” value was “much higher”.
For the molecule `Cc1ccc(NC(=O)Oc2ccc3c(c2)CCN3Cc2ccccc2)cc1C` [Example 113, 1-benzylindolin-5-yl 3,4-dimethylphenylcarbamate], the IC50 in experiment [1] was 160 nM; in experiment [2], > 100 µM. In addition, the “Ratio AChE/BuChE” value in experiment [1] is listed as >630.
Taken in the same sequence, the figures for `C[C@H](NC(=O)Oc1ccc2c(c1)CCN2Cc1ccccc1)c1ccccc1` [Example 19, 1-benzylindolin-5-yl (S)-1-phenylethylcarbamate] were 190 nM, > 100 µM and >530.
For the molecule `COc1ccccc1CCNC(=O)Oc1ccc2c(c1)CCN2Cc1ccccc1` [Example 117, 1-benzylindolin-5-yl 2-methoxyphenethylcarbamate], the IC50 in experiment [1] (setting [3]) worked out at 24 nM; in experiment [2] (setting [4]), 7.9 µM. Further, in experiment [1], the “Ratio AChE/BuChE” value is given as 330. In experiment [1] (summary of Tables 1-3), the “selectivity to butyrylcholinesterase (BuChE versus AChE inhibitory activity), in words” value was “much higher”.
`O=C(NC1CCCCC1)Oc1ccc2c(c1)CCN2Cc1ccccc1` [Example 20, 1-benzylindolin-5-yl cyclohexylcarbamate]: in experiment [1], inhibition was half-maximal at 67 nM (IC50) and the “Ratio AChE/BuChE” value is listed as >1500. In addition, in experiment [1] (summary of Tables 1-3), the “selectivity to butyrylcholinesterase (BuChE versus AChE inhibitory activity), in words” value is given as “much higher”. Besides, the half-maximal inhibitory concentration (IC50) in experiment [2] was > 100 µM.
Take `CN(C)CC(C)(C)CNC(=O)Oc1ccc2c(c1)CCN2Cc1ccccc1` [Example 156, 1-benzylindolin-5-yl 3-dimethylamino-2,2-dimethylpropylcarbamate]: in experiment [1], the 50% inhibitory concentration (IC50) is 510 nM and the “Ratio AChE/BuChE” value is >200. The concentration for half-maximal inhibition (IC50) in experiment [2] is > 100 µM.
On to `O=C(NCc1ccncc1)Oc1ccc2c(c1)CCN2Cc1ccccc1` [Example 103, 1-benzylindolin-5-yl 4-pyridylmethylcarbamate], for which the IC50 in experiment [1] (setting [3]) came to 110 nM; in experiment [2] (setting [4]), 9.3 µM. The “Ratio AChE/BuChE” value in experiment [1] is recorded as 85.
Consider `COc1ccc(NC(=O)Oc2ccc3c(c2)CCN3Cc2ccccc2)cc1` [Example 9, 1-benzylindolin-5-yl 4-methoxyphenylcarbamate], for which, in experiment [1], the midpoint of inhibition, the IC50, lay at 98 nM and the “Ratio AChE/BuChE” value is given as >1000. Further, the “selectivity to butyrylcholinesterase (BuChE versus AChE inhibitory activity), in words” value in experiment [1] (summary of Tables 1-3) is “much higher”. Also, the half-maximal inhibitory concentration (IC50) in experiment [2] is > 100 µM.
As to `CCCN(CCC)C(=O)CC1CN(Cc2ccccc2)c2ccc(OC(=O)Nc3ccc(C(C)C)cc3)cc21` (centres unmarked) [Example 161, 1-benzyl-3-(di-n-propylaminocarbonylmethyl)indolin-5-yl 4-isopropylphenylcarbamate], in experiment [1], 150 nM corresponded to half-maximal inhibition (IC50) and the “Ratio AChE/BuChE” value is listed as >670. The IC50 in experiment [2] is > 100 µM.
With `O=C(NCc1ccccc1)Oc1ccc2c(c1)CCN2Cc1ccccc1` [Example 15, 1-benzylindolin-5-yl benzylcarbamate], the IC50 in experiment [1] (setting [3]) was determined as 13 nM; in experiment [2] (setting [4]), 1.8 µM. Moreover, the “Ratio AChE/BuChE” value in experiment [1] was 140. For the same molecule, the “selectivity to butyrylcholinesterase (BuChE versus AChE inhibitory activity), in words” value in experiment [1] (summary of Tables 1-3) is listed as “much higher”.
On to `COc1ccc(CCNC(=O)Oc2ccc3c(c2)CCN3Cc2ccccc2)cc1` [Example 32, 1-benzylindolin-5-yl 4-methoxyphenethylcarbamate], for which the values for the 50% inhibitory concentration (IC50) in experiment [1] and in experiment [2] were 160 nM and > 100 µM, respectively. Besides, in experiment [1], the “Ratio AChE/BuChE” value is reported as >630.
As for `CN(CC1CCOCC1)C(=O)Oc1ccc2c(c1)C(C)(C)CN2Cc1ccccc1` [Example 217, O-(1-benzyl-3,3-dimethylindolin-5-yl)-N-methyl-N-(4-tetrahydropyranylmethyl)carbamate], in experiment [1], the IC50 turned out to be 0.36 nM and the “Ratio AChE/BuChE” value is 260000. In experiment [1] (summary of Tables 1-3), the “butyrylcholinesterase inhibitory activity, in words” value was “highest butyrylcholinesterase inhibitory activity” and the “selectivity to butyrylcholinesterase (BuChE versus AChE inhibitory activity), in words” value was “much higher; also recorded: highest selectivity to butyrylcholinesterase”. The same molecule displayed a concentration for half-maximal inhibition (IC50) in experiment [2] of 93 µM.
For `O=C(NCCC1CCN(Cc2ccccc2)CC1)Oc1ccc2c(c1)CCN2Cc1ccccc1` [Example 139, 1-benzylindolin-5-yl 2-(1-benzylpiperidin-4-yl)ethylcarbamate], in experiment [1], half-maximal inhibition (IC50) was put at 43 nM and the “Ratio AChE/BuChE” value stood at 63. This molecule also gave a 50% inhibitory concentration (IC50) in experiment [2] of 2.7 µM.
Take `CC(C)(C)CNC(=O)Oc1ccc2c(c1)CCN2Cc1ccccc1` [Example 153, 1-benzylindolin-5-yl 2,2-dimethylpropylcarbamate]: the half-inhibitory concentration (IC50) in experiment [1] was 91 nM; in experiment [2], > 100 µM. In experiment [1], the “Ratio AChE/BuChE” value was >1100. For the same molecule, the “selectivity to butyrylcholinesterase (BuChE versus AChE inhibitory activity), in words” value in experiment [1] (summary of Tables 1-3) is “much higher”.
Regarding `COc1ccc(NC(=O)Oc2ccc3c(c2)CCN3Cc2ccccc2)cc1OC` [Example 140, 1-benzylindolin-5-yl 3,4-dimethoxyphenylcarbamate], in experiment [1], the midpoint of inhibition, the IC50, lay at 110 nM and the “Ratio AChE/BuChE” value is >910. In experiment [2], the 50% inhibitory concentration (IC50) was > 100 µM.
Regarding `CN(C)C(=O)Oc1ccc2c(c1)CCN2Cc1ccccc1` [Example 221, N,N-dimethyl-O-(1-benzylindolin-5-yl)carbamate], in experiment [1], the midpoint of inhibition, the IC50, lay at 170 nM and the “Ratio AChE/BuChE” value is 76. For the same molecule, the IC50 in experiment [2] came out at 13 µM.
In the case of `COc1cccc(CNC(=O)Oc2ccc3c(c2)CCN3Cc2ccccc2)c1` [Example 100, 1-benzylindolin-5-yl 3-methoxybenzylcarbamate], the results for the IC50 in experiment [1] (setting [3]) and in experiment [2] (setting [4]) were 7.3 nM and 1.6 µM, respectively. The “Ratio AChE/BuChE” value in experiment [1] is 220. Further, the “selectivity to butyrylcholinesterase (BuChE versus AChE inhibitory activity), in words” value in experiment [1] (summary of Tables 1-3) was “much higher”.
As for `O=C(Nc1ccc2c(c1)CCO2)Oc1ccc2c(c1)CCN2Cc1ccccc1` [Example 14, 1-benzylindolin-5-yl 2,3-dihydro-1-benzofuran-5-ylcarbamate], the results for the IC50 in experiment [1] (setting [3]) and in experiment [2] (setting [4]) were 41 nM and 2.7 µM, respectively. For the same molecule, the “Ratio AChE/BuChE” value in experiment [1] worked out at 66.
In the case of `CC(C)c1ccc(NC(=O)Oc2ccc3c(c2)CCN3Cc2cccnc2)cc1` [Example 28, 1-(3-pyridylmethyl)indolin-5-yl 4-isopropylphenylcarbamate], in experiment [1], the IC50 was 470 nM and the “Ratio AChE/BuChE” value was >210. Besides, the IC50 in experiment [2] was > 100 µM.
